Data taken from US20190031780A1, “COMPOSITIONS AND METHODS FOR TARGETING CANCER STEM CELLS” (Siamab Therapeutics, Inc., priority 2016, published 2019).

B1: SIA101: anti-STn IgG2a antibody: SIA101 variable domains (SEQ ID NO: 3, 4) with mouse IgG2a constant domains (antibody, V domains shown)
VH: QVQLQQSDXELVKPGASVKISCKASGYTFTDHAIHWVKQKPEQGLEWIGYFSPGNDDIKYNEKFRGKATLTADKSSSTAYMQLNSLSSDDSAVYFCKRSLSTPYWGQGTLXTVSA
VL: DIVMTQSPSSLTVTAGEKVTMSCKSSQSLLNRGNHKNYLTWYRQKPGLPPKLLIYWASTRESGVPDRFTGSGSGTDFALTISSVQAEDLAVYYCQNDYTYPYTFGGGTKLEIKR
modifications: not fully specified; mouse IgG2a constant domains; MOD_RES (9)..(9) Any amino acid; MOD_RES (111)..(111) Any amino acid
B2: S3F: anti-STn IgG2a antibody: mouse 3F1 variable domains (SEQ ID NO: 1, 2) with mouse IgG2a constant domains; full chains SEQ ID NO: 7, 8 (antibody)
heavy: QVQLQQSDAELVKPGASVKISCKASGYTFTDHAIHWVKQKPEQGLDWIGYISPGNGDIKYNEKFKDKVTLTADKSSSTACMHLNSLTSEDSAVYFCKRSLLALDYWGQGTTLTVSSAKTTAPSVYPLAPVCGDTTGSSVTLGCLVKGYFPEPVTLTWNSGSLSSGVHTFPAVLQSDLYTLSSSVTVTSSTWPSQSITCNVAHPASSTKVDKKIEPRGPTIKPCPPCKCPAPNLLGGPSVFIFPPKIKDVLMISLSPIVTCVVVDVSEDDPDVQISWFVNNVEVHTAQTQTHREDYNSTLRVVSALPIQHQDWMSGKEFKCKVNNKDLPAPIERTISKPKGSVRAPQVYVLPPPEEEMTKKQVTLTCMVTDFMPEDIYVEWTNNGKTELNYKNTEPVLDSDGSYFMYSKLRVEKKNWVERNSYSCSVVHEGLHNHHTTKSFSRTPGK
light: DIVMTQSHKFMSTSVGDRVSITCKASQDVGTNIAWYQQKPGRSPKVLIYSASTRHTGVPDRFTGSGSGTDFTLTISNVQSEDLTDYFCQQYSSFPLTFGVGTKLELKRADAAPTVSIFPPSSEQLTSGGASVVCFLNNFYPKDINVKWKIDGSERQNGVLNSWTDQDSKDSTYSMSSTLTLTKDEYERHNSYTCEATHKTSTSPIVKSFNRNEC

Assays:
STn+CD133+ OV90 cells = test: Cell viability of OV90 cells by MTT assay, chemotherapeutic vs antibody treatment (Example 6); type: cell-based, human; conditions: OV90 cells cultured 72 to 144 hours; normalized to vehicle only control
Method: STn+CD133+ OV90 and CSC sub-fractions were treated with different concentrations of paclitaxel (FIG. 2A), carboplatin (FIG. 2B), paclitaxel and carboplatin (FIG. 2C) or with unconjugated anti-STn antibody S3F (FIG. 2D). OV90 cells were cultured for 72 to 144 hours with the indicated chemotherapeutic drug or antibody concentrations and cell viability was analyzed by MTT assay. All values were normalized to a vehicle only control.

OVCAR4 cells = test: Relative frequency of OVCAR4 STn/CD133 subpopulations after chemotherapy treatment (Example 13); type: cell-based, human; conditions: vs vehicle
Method: The potential for anti-STn antibodies to target stem cells after treatment of OVCAR4 cells with chemotherapy agents (paclitaxel and/or carboplatin) was evaluated. The relative frequency of the OVCAR4 subpopulations observed following treatment with either vehicle (shaded) or the indicated chemotherapy regimen is shown in FIG. 6.

OVCAR3 cells = test: OVCAR3 cell viability by MTT assay, chemotherapeutic vs antibody treatment (Example 15); type: cell-based, human; conditions: 72 hours, increasing doses, normalized to vehicle control
Method: The viability of OVCAR3 cells grown in culture was assessed following treatment with carboplatin, paclitaxel, carboplatin and paclitaxel, or S3F (FIG. 7). OVCAR3 cells were cultured for 72 hours with the indicated concentrations of paclitaxel, carboplatin, paclitaxel/carboplatin combination, or S3F. Relative cell viability was determined by measuring cellular metabolic activity using an MTT assay (EMD Millipore, Billerica, Mass.). For each experiment, all values were normalized to the vehicle control.

[1] = system: STn positive cells in OVCAR3 xenograft tissues; test: STn expression in xenograft tissues by flow cytometry at end of OVCAR3 in vivo study (Example 20); parameters: species or system NOD/SCID mice; conditions: 5 mg/kg weekly
Method: OVCAR3 cells were injected into NOD/SCID mice to generate tumor xenografts. Once a sufficient number of mice developed tumor volumes ranging from 200-500 mm^3, mice were randomized into 5 groups (about 6-7 mice/group) with essentially equivalent group mean tumor volumes. Each group received weekly treatments according to the following Table.
At the end of the study, xenograft tissues were processed to a single cell suspension and assessed for STn expression by flow cytometry. Around 80% of the cells in tissues from groups 1, 4, and 5 were STn positive, while the cells from group 2 mice were less than 40% STn positive (a reduction of about 50%) and cells from group 3 mice were around 10% STn positive (a reduction of greater than 85%).

ovarian cancer tissue = test: Immunohistochemical staining of ovarian cancer tissue sections (Example 9); conditions: primary antibody; compared to normal IgG and no primary antibody
Source text: Tissue sections from ovarian cancer tissue were subjected to immunohistochemical staining to identify cells expressing STn using S3F antibody as a primary antibody. Bound antibody was detected using a peroxidase-based secondary detection system.

Molecule	cell viability (MTT assay) (STn+CD133+ OV90 cells)	relative frequency of STn-negative subpopulations (STn-/CD133- and STn-/CD133+) (OVCAR4 cells)	relative frequency of STn-positive subpopulations (STn+/CD133- and STn+/CD133+) (OVCAR4 cells)	relative cell viability (metabolic activity, MTT assay) (OVCAR3 cells)	STn positive cells in xenograft tissues [1]	immunohistochemical staining of STn-expressing cells (ovarian cancer tissue)
N.N.O=C([O-])C1(C(=O)[O-])CCC1.[Pt+2] [carboplatin]	significantly reduced	decrease	increase	decreased cell viability		
CC(=O)O[C@H]1C(=O)[C@@]2(C)[C@H]([C@H](OC(=O)c3ccccc3)[C@]3(O)C[C@H](OC(=O)[C@H](O)[C@@H](NC(=O)c4ccccc4)c4ccccc4)C(C)=C1C3(C)C)[C@]1(OC(C)=O)CO[C@@H]1C[C@@H]2O [paclitaxel]	significantly reduced	decrease	increase	decreased cell viability		
B1					Around 80%	
B2	no significant effect			no loss of viability	Around 80%	Numerous cells showed positive staining
